Experimental data as given in ChEMBL document CHEMBL3616470, “Biological evaluation of angular disubstituted naphthoimidazoles as anti-inflammatory agents” (Bioorg Med Chem Lett, 2015).
Blank lines part the entries; values can stand above or below the compound they belong to. Activity calls are given as the source filed them. The calls are words filed in the database; no cut-off is given here.

What was measured:
RAW264.7 [1] = test: Cytotoxicity against mouse RAW264.7 cells assessed as cell viability at 10 to 20 uM after 24 hrs by MTT assay; type: cell-based; conditions: raw264.7, 24 h
RAW264.7 [2] = test: Antiinflammatory activity in mouse RAW264.7 cells assessed as inhibition of LPS-induced NOS2 expression at 20 uM treated 30 mins before LPS stimulation measured after 24 hrs by Western blotting; type: functional, cell-based
RAW264.7 [3] = test: Antiinflammatory activity in mouse RAW264.7 cells assessed as inhibition of LPS-induced COX2 expression at 20 uM treated 30 mins before LPS stimulation measured after 24 hrs by Western blotting; type: functional, cell-based
RAW264.7 [4] = test: Antiinflammatory activity in mouse RAW264.7 cells assessed as inhibition of LPS-induced nitric oxide production treated 30 mins before LPS stimulation measured after 24 hrs by Griess assay; type: functional, cell-based
RAW264.7 [5] = test: Antiinflammatory activity in mouse RAW264.7 cells assessed as inhibition of LPS-induced NOS2 expression at 10 to 20 uM treated 30 mins before LPS stimulation measured after 24 hrs by Western blotting; type: functional, cell-based
RAW264.7 [6] = test: Antiinflammatory activity in mouse RAW264.7 cells assessed as inhibition of LPS-induced COX2 expression at 10 to 20 uM treated 30 mins before LPS stimulation measured after 24 hrs by Western blotting; type: functional, cell-based
RAW264.7 [7] = test: Inhibition of NFkappaB activation in mouse RAW264.7 cells assessed as reduction of LPS-induced IkappaBalpha level in cytosol at 20 uM treated 30 mins before LPS stimulation measured after 24 hrs by Western blotting; type: cell-based
RAW264.7 [8] = test: Inhibition of NFkappaB activation in mouse RAW264.7 cells assessed as reduction of LPS-induced IkappaBbeta level in cytosol at 20 uM treated 30 mins before LPS stimulation measured after 24 hrs by Western blotting; type: cell-based
RAW264.7 [9] = test: Inhibition of NFkappaB activation in mouse RAW264.7 cells assessed as reduction of LPS-induced p65 level in nucleus at 20 uM treated 30 mins before LPS stimulation measured after 24 hrs by Western blotting; type: cell-based

Structure (SMILES): COc1cc(-n2c(-c3ccccc3)nc3cc(OC)c4ccccc4c32)c(OC)c2ccccc12
Activity (RAW264.7 [1]): Non-toxic | inhibition (RAW264.7 [2]): inactive | inhibition (RAW264.7 [3]): inactive

IC50 (RAW264.7 [4]): 8.4 µM
Structure (SMILES): COc1cc(-n2c(-c3cccnc3)nc3cc(OC)c4ccccc4c32)c(OC)c2ccccc12
Activity (RAW264.7 [1]): Non-toxic | inhibition (RAW264.7 [4]): Dose-dependent effect | inhibition (RAW264.7 [5]): Active | inhibition (RAW264.7 [6]): Active | inhibition (RAW264.7 [7]): Active | inhibition (RAW264.7 [8]): Active | inhibition (RAW264.7 [9]): Active

Structure (SMILES): COc1cc2nc(-c3ccc([N+](=O)[O-])cc3)n(-c3ccccc3Br)c2c2ccccc12
Activity (RAW264.7 [1]): Non-toxic

Structure (SMILES): COc1cc(-n2c(-c3cccc(F)c3)nc3cc(OC)c4ccccc4c32)c(OC)c2ccccc12
Activity (RAW264.7 [1]): Non-toxic

Structure (SMILES): COc1cc(-n2c(-c3ccsc3)nc3cc(OC)c4ccccc4c32)c(OC)c2ccccc12
Activity (RAW264.7 [1]): Non-toxic

Structure (SMILES): COc1cc(-n2c(-c3ccc([N+](=O)[O-])cc3)nc3cc(OC)c4ccccc4c32)c(OC)c2ccccc12
Activity (RAW264.7 [1]): Non-toxic
